Where two headings read alike, the source gives them in different places.
Assays:
Wildtype Arabidopsis = experiment: T1 Arabidopsis spray test, % visual injury 2 WAT: wildtype control; assay type: in vivo, Arabidopsis thaliana; settings: for % Injury Ave / % Injury Range / individuals with 20-40% injury / individuals with <20% injury / individuals with >40% injury: Wildtype, 2 WAT
Source text: (§1) Random individual T1 plants selected for glufosinate resistance above were confirmed for expression of the PAT protein using a PAT ELISA kit (Part no. 7000045, Strategic Diagnostics, Inc., Newark, Del.) to non-destructively confirm fidelity of selection process (manufacturer's protocol). Plants were then randomly assigned to various rates of phenoxy herbicides (dichlorprop or 2,4-D). […] Elevated rates were applied in subsequent trials (50, 200, 800, or 3200 g ae/ha).
(§2) All auxin herbicide applications were made using the DeVilbiss sprayer as described above to apply 703 L/ha spray volume (0.4 ml solution/3-inch pot) or applied by track sprayer in a 187 L/ha spray volume. […] Dichlorprop used was technical grade (Sigma, St. Louis, Mo.) dissolved in DMSO and diluted in water (<1% DMSO final concentration). As herbicide rates increased beyond 800 g ae/ha, the pH of the spray solution became exceedingly acidic, burning the leaves of young, tender Arabidopsis plants and complicating evaluation of the primary effects of the herbicides. It became standard practice to apply these high rates of phenoxy herbicides in 200 mM Tris buffer (pH 9.0) to a final pH of ˜7-8.
(§3) Although Arabidopsis, being a dicot, is not an optimal system for testing ACCase-inhibiting AOPP grass herbicides, AAD1 (v3)-transformed T1 plants were subjected to elevated rates (400-1600 g ae/ha) of RS-haloxyfop acid (internally synthesized) that do cause growth abnormalities and death of wildtype Arabidopsis using the DeVilbiss sprayer as described above. Injury ratings were taken 7 and 14 days after treatment. Likewise, T1 individuals were treated with the pyridyloxyacetate auxin herbicide, fluroxypyr.
Table 16. […] Response is presented in terms of % visual injury 2 WAT. […] Since each T1 is an independent transformation event, one can expect significant variation of individual T1 responses within a given rate. An arithmetic mean and standard deviation is presented for each treatment. The range in individual response is also indicated in the last column for each rate and transformation. PAT/Cry1F-transformed Arabidopsis served as an auxin-sensitive transformed control. Wildtype Arabidopsis is untransformed.
(§4) Table 17. T1 Arabidopsis response to a range of dichlroprop rates applied postemergence. Response is presented in terms of % visual injury 2 WAT. […] Since each T1 is an independent transformation event, one can expect significant variation of individual T1 responses within a given rate. An arithmetic mean and standard deviation is presented for each treatment. The range in individual response is also indicated in the last column for each rate and transformation. PAT/Cry1F-transformed Arabidopsis served as an auxin-sensitive transformed control. Wildtype Arabidopsis is untransformed.
as §4, with “18.” for “17.”, “haloxyfop” for “dichlroprop”, “postemergence at artificially high rates attempting to show tolerance of the dicot Arabidopsis to the graminicide.” for “postemergence.”

[1] = test system: Arabidopsis thaliana var. Columbia; experiment: Arabidopsis plate test bioassay for herbicide degradation; assay type: in vivo; settings: for IC50: 168 h
[2] = test system: AAD1 (v3)-transformed T1 Arabidopsis; experiment: T1 Arabidopsis response to postemergence herbicide (2,4-D, dichlorprop, haloxyfop, fluroxypyr), % visual injury 2 WAT: AAD1 (v3) transformants; assay type: in vivo, Arabidopsis thaliana; settings: AAD1 v3, 2 WAT
Experimental: Freshly harvested T1 seed (transformed with native [AAD1 (v2)] or plant optimized [AAD1 (v3)] gene) was allowed to dry for 7 days at room temperature. T1 seed was sown in 26.5×51-cm germination trays (T.O. Plastics Inc., Clearwater, Minn.), each receiving a 200 mg aliquots of stratified T1 seed (˜10,000 seed) that had previously been suspended in 40 ml of 0.1% agarose solution and stored at 4° C. for 2 days to complete dormancy requirements and ensure synchronous seed germination.
Sunshine Mix LP5 (Sun Gro Horticulture Inc., Bellevue, Wash.) was covered with fine vermiculite and subirrigated with Hoagland's solution until wet, then allowed to gravity drain. Each 40 ml aliquot of stratified seed was sown evenly onto the vermiculite with a pipette and covered with humidity domes (KORD Products, Bramalea, Ontario, Canada) for 4-5 days. Domes were removed 1 day prior to initial transformant selection using glufosinate postemergence spray (selecting for the co-transformed PAT gene).
Five to six days after planting (DAP) and again 10 DAP, T1 plants (cotyledon and 2-4-1f stage, respectively) were sprayed with a 0.2% solution of Liberty herbicide (200 g ai/L glufosinate, Bayer Crop Sciences, Kansas City, Mo.) at a spray volume of 10 ml/tray (703 L/ha) using a DeVilbiss compressed air spray tip to deliver an effective rate of 280 g ai/ha glufosinate per application. Survivors (plants actively growing) were identified 5-7 days after the final spraying and transplanted individually into 3-inch pots prepared with potting media (Metro Mix 360). Transplanted plants were covered with humidity domes for 3-4 days and placed in a 22° C. growth chamber as before. Domes were subsequently removed and plants moved to the greenhouse (22+5° C., 50+30% RH, 14 h light:10 dark, minimum 500 μE/m^2s^1 natural+supplemental light) at least 1 day prior to testing for the ability of AAD1 (v3) (plant optimized gene) or AAD1 (v2) (native microbial gene) to provide phenoxy auxin herbicide resistance.
as §1, §2, §3
Table 16. […] Response is presented in terms of % visual injury 2 WAT. […] Since each T1 is an independent transformation event, one can expect significant variation of individual T1 responses within a given rate. An arithmetic mean and standard deviation is presented for each treatment. […]

CC(Oc1ccc(Cl)cc1Cl)C(=O)O (racemic) [(R,S)-dichlorprop, 2,4-dichlorophenoxypropionic acid]
% Injury Ave (Wildtype Arabidopsis; 12.5 g ae/ha): 13.3%
% Injury Range (Wildtype Arabidopsis; 12.5 g ae/ha): 10-15%
individuals with 20-40% injury (Wildtype Arabidopsis; 12.5 g ae/ha): 0
individuals with <20% injury (Wildtype Arabidopsis; 12.5 g ae/ha): 3
individuals with >40% injury (Wildtype Arabidopsis; 12.5 g ae/ha): 0
% Injury Ave (Wildtype Arabidopsis; 50 g ae/ha): 53.3%
% Injury Range (Wildtype Arabidopsis; 50 g ae/ha): 50-60%
individuals with 20-40% injury (Wildtype Arabidopsis; 50 g ae/ha): 0
individuals with <20% injury (Wildtype Arabidopsis; 50 g ae/ha): 0
individuals with >40% injury (Wildtype Arabidopsis; 50 g ae/ha): 3
% Injury Ave (Wildtype Arabidopsis; 200 g ae/ha): 95.0%
% Injury Range (Wildtype Arabidopsis; 200 g ae/ha): 90-100%
individuals with 20-40% injury (Wildtype Arabidopsis; 200 g ae/ha): 0
individuals with <20% injury (Wildtype Arabidopsis; 200 g ae/ha): 0
individuals with >40% injury (Wildtype Arabidopsis; 200 g ae/ha): 3
% Injury Ave (Wildtype Arabidopsis; 800 g ae/ha): 100.0%
% Injury Range (Wildtype Arabidopsis; 800 g ae/ha): 100%
individuals with 20-40% injury (Wildtype Arabidopsis; 800 g ae/ha): 0
individuals with <20% injury (Wildtype Arabidopsis; 800 g ae/ha): 0
individuals with >40% injury (Wildtype Arabidopsis; 800 g ae/ha): 3
GR99 for Arabidopsis (Wildtype Arabidopsis; postemergence spray): ~200 g ae/ha
IC50 ([1]; Arabidopsis thaliana, AAD1 (v1)-expressing lysate, nominal concentration, read-out: GR50, Chemical + AAD1 v1): 1000 nM
IC50 ([1]; Escherichia coli, in Arabidopsis thaliana, cell lysate of E. coli pET vector without gene insert, read-out: GR50, Chemical + Blank Vector): 30 nM
GR50 ratio ([1]; enzyme-expressing lysate vs blank vector, ≥ 2 = threshold for activity loss): 33
herbicidal activity after AAD1 (v1) treatment, Arabidopsis plate assay ([1]; unpurified recombinant AAD1 (v1) extract): effectively degraded
% Injury Ave ([2]; 12.5 g ae/ha): 5.0%
% Injury Range ([2]; 12.5 g ae/ha): 0-20%
individuals with 20-40% injury ([2]; 12.5 g ae/ha): 1
individuals with <20% injury ([2]; 12.5 g ae/ha): 7
individuals with >40% injury ([2]; 12.5 g ae/ha): 0
% Injury Ave ([2]; 50 g ae/ha): 3.1%
% Injury Range ([2]; 50 g ae/ha): 0-25%
individuals with 20-40% injury ([2]; 50 g ae/ha): 1
individuals with <20% injury ([2]; 50 g ae/ha): 7
individuals with >40% injury ([2]; 50 g ae/ha): 0
% Injury Ave ([2]; 200 g ae/ha): 40.0%
% Injury Range ([2]; 200 g ae/ha): 0-100%
individuals with 20-40% injury ([2]; 200 g ae/ha): 1
individuals with <20% injury ([2]; 200 g ae/ha): 4
individuals with >40% injury ([2]; 200 g ae/ha): 3
% Injury Ave ([2]; 800 g ae/ha): 51.9%
% Injury Range ([2]; 800 g ae/ha): 20-100%
individuals with 20-40% injury ([2]; 800 g ae/ha): 5
individuals with <20% injury ([2]; 800 g ae/ha): 0
individuals with >40% injury ([2]; 800 g ae/ha): 3
